Measurements published in EP4574147A1, “COMPOSITION FOR PREVENTING, AMELIORATING, OR TREATING CANCER COMPRISING STEPPOGENIN AS ACTIVE INGREDIENT” (Kyungpook National University Industry-Academic Cooperation …, priority 2022, dated 2024).

Test system: Lewis lung carcinoma (LLC)-allografted tumor models
Experiment: Lewis lung carcinoma allograft tumor model with immunohistochemical analysis
Assay type: in vivo, C57BL/6J mice
Details: 17-AAG 25 mg/kg, steppogenin 2 mg/kg, intraperitoneal (FIG. 6b)
Description: Six-week-old adult male C57BL/6J mice (SLC, Japan) were used and housed in a specific pathogen-free facility with an individual ventilation system at Kyungpook National University.
To manufacture Lewis lung carcinoma (LLC)-allografted tumor models, LLC cell suspensions (5 × 10^5 cells in 200 µL of serum-free culture medium) were subcutaneously transplanted into the dorsal flank area of 6-week-old male C57BL/6J mice. After inoculating the LLC cells, the mice were administered 17-AAG (25 mg/kg) or steppogenin (2 mg/kg) via intraperitoneal injection at various time points. Next, tumor volumes were measured according to the following formula: V = 0.5 × A × B^2, where A and B represent the longest and shortest dimensions, respectively. Finally, the mice were anesthetized and tissues were collected for further analysis.
For immunohistochemical analysis, collected tumor or tissue samples were fixed in 4% paraformaldehyde and embedded in tissue-freezing medium (Leica, Wetzlar, Germany). Frozen blocks were cut into 10 µm sample sections, blocked with 3% BSA in PBST (0.3% Triton X-100 in PBS), and incubated overnight at 4 °C with appropriate primary antibodies. Primary antibodies were as follows: anti-CD34 (Boster Bio, CA, USA), anti-DLL4 (R&D Systems, MN, USA), anti-pimonidazole (Hypoxyprobe-1, HPI, MA, USA), anti-CD3 (Abcam), anti-CD4 (Invitrogen), and anti-CD8 (Invitrogen). After several washes, the samples were incubated with recommended fluorophore-tagged secondary antibodies for 1 hour at room temperature. Next, cell nuclei were stained using Antifade Mounting Medium containing DAPI (Vector Laboratories, Burlingame, CA). Immunofluorescence images were acquired using a Zeiss confocal microscope (Carl Zeiss, Germany). Next, pimonidazole hydrochloride (60 mg/kg; Hypoxyprobe-1, HPI) was injected intravenously through the tail vein of mice and anesthetized 90 minutes later. Finally, tumor tissues were collected for further analysis.
To determine whether steppogenin induces vascular normalization, T-cell infiltration in tumor tissues was examined.

**Q.** Which “average body weights between the groups during the administration period” value does the source give for C=CCNC1=C2C[C@@H](C)C[C@H](OC)[C@H](O)[C@@H](C)/C=C(\C)[C@H](OC(N)=O)[C@@H](OC)/C=C\C=C(/C)C(=O)NC(=CC1=O)C2=O [Compound 17-AAG, tanespimycin, reference compound] here?
**A.** Its value is “no significant difference”.
